# Measurements: patent US20220119354A1, “DIAMINO-SUBSTITUTED PYRIDINES AND PYRIMIDINES AS HERBICIDES” (FMC Corporation, priority 2019, published 2022)
# Tests used:
# Format in all cases: in vivo
# [1] = test system: barnyardgrass (Echinochloa crus-galli); test: Test A preemergence, barnyardgrass; details: 0 to 100 scale
# Method in brief: (§1)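 Visual injury scores (0 no effect to 100 complete control) were assigned about 10 d after treatment by comparison with untreated controls. Test chemicals, formulated in a surfactant-containing non-phytotoxic solvent, were applied to soil at planting or to plants at the one- to two-leaf stage.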
# [2] = test system: kochia (Kochia scoparia); test: Test A preemergence, kochia; details: 0 to 100 scale
# Method in brief: as §1
# [3] = test system: ragweed (common ragweed, Ambrosia elatior); test: Test A preemergence, ragweed; details: 0 to 100 scale
# Method in brief: as §1
# [4] = test system: ryegrass, Italian (Lolium multiflorum); test: Test A preemergence, Italian ryegrass; details: 0 to 100 scale
# Method in brief: as §1
# [5] = test system: foxtail, giant (Setaria faberii); test: Test A preemergence, giant foxtail; details: 0 to 100 scale
# Method in brief: as §1
# [6] = test system: pigweed (Amaranthus retroflexus); test: Test A preemergence, pigweed; details: 0 to 100 scale
# Method in brief: as §1
# [7] = test system: barnyardgrass (Echinochloa crus-galli); test: Test A postemergence, barnyardgrass; details: 0 to 100 scale
# Method in brief: as §1
# [8] = test system: kochia (Kochia scoparia); test: Test A postemergence, kochia; details: 0 to 100 scale
# Method in brief: as §1
# [9] = test system: ragweed (common ragweed, Ambrosia elatior); test: Test A postemergence, ragweed; details: 0 to 100 scale
# Method in brief: as §1
# [10] = test system: ryegrass, Italian (Lolium multiflorum); test: Test A postemergence, Italian ryegrass; details: 0 to 100 scale
# Method in brief: as §1
# [11] = test system: foxtail, giant (Setaria faberii); test: Test A postemergence, giant foxtail; details: 0 to 100 scale
# Method in brief: as §1
# [12] = test system: pigweed (Amaranthus retroflexus); test: Test A postemergence, pigweed; details: 0 to 100 scale
# Method in brief: as §1
# [13] = test system: wheat (Triticum aestivum); test: Test A postemergence, wheat; details: 0 to 100 scale
# Method in brief: as §1
# [14] = test system: corn (Zea mays); test: Test A postemergence, corn; details: 0 to 100 scale
# Method in brief: as §1
# [15] = test system: blackgrass (Alopecurus myosuroides); test: Test A postemergence, blackgrass; details: 0 to 100 scale
# Method in brief: as §1
# [16] = test system: galium (catchweed bedstraw, Galium aparine); test: Test A postemergence, galium; details: 0 to 100 scale
# Method in brief: as §1
# [17] = test system: rice (Oryza sativa); test: Test B flooded paddy test, rice; details: Flood, 250 g ai/ha, applied to paddy water, 2-leaf stage, visual evaluation after 13 to 15 d
# Method in brief: (§2)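 Each response is a visual 0–100 rating made against untreated controls, where 0 is no effect and 100 is complete control; a dash marks no result. Compound was dosed into 3 cm paddy water over 2-leaf plants, assessed after 13 to 15 d.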
# [18] = test system: sedge, umbrella (small-flower umbrella sedge, Cyperus difformis); test: Test B flooded paddy test, umbrella sedge; details: Flood, 250 g ai/ha, applied to paddy water, 2-leaf stage, visual evaluation after 13 to 15 d
# Method in brief: as §2
# [19] = test system: ducksalad (Heteranthera limosa); test: Test B flooded paddy test, ducksalad; details: Flood, 250 g ai/ha, applied to paddy water, 2-leaf stage, visual evaluation after 13 to 15 d
# Method in brief: as §2
# [20] = test system: barnyardgrass (Echinochloa crus-galli); test: Test B flooded paddy test, barnyardgrass; details: Flood, 250 g ai/ha, applied to paddy water, 2-leaf stage, visual evaluation after 13 to 15 d
# Method in brief: as §2
smiles,measurement,setting,value
C[C@@H](Nc1ncc(C(F)(F)F)c(N)n1)c1cc2ccc(C(F)(F)F)cc2o1 [Compound 15],"Plant response rating, Barnyardgrass",[1]; 125 g ai/ha,20
same,"Plant response rating, Barnyardgrass",[1]; 500 g ai/ha,70
same,"Plant response rating, Kochia",[2]; 125 g ai/ha,40
same,"Plant response rating, Kochia",[2]; 500 g ai/ha,50
same,"Plant response rating, Ragweed",[3]; 125 g ai/ha,30
same,"Plant response rating, Ragweed",[3]; 500 g ai/ha,90
same,"Plant response rating, Ryegrass, Italian",[4]; 125 g ai/ha,0
same,"Plant response rating, Ryegrass, Italian",[4]; 500 g ai/ha,70
same,"Plant response rating, Foxtail, Giant",[5]; 125 g ai/ha,20
same,"Plant response rating, Foxtail, Giant",[5]; 500 g ai/ha,90
same,"Plant response rating, Pigweed",[6]; 125 g ai/ha,80
same,"Plant response rating, Pigweed",[6]; 500 g ai/ha,100
same,"Plant response rating, Barnyardgrass",[7]; 125 g ai/ha,30
same,"Plant response rating, Barnyardgrass",[7]; 500 g ai/ha,30
same,"Plant response rating, Kochia",[8]; 125 g ai/ha,40
same,"Plant response rating, Kochia",[8]; 500 g ai/ha,80
same,"Plant response rating, Ragweed",[9]; 125 g ai/ha,20
same,"Plant response rating, Ragweed",[9]; 500 g ai/ha,40
same,"Plant response rating, Ryegrass, Italian",[10]; 125 g ai/ha,0
same,"Plant response rating, Ryegrass, Italian",[10]; 500 g ai/ha,30
same,"Plant response rating, Foxtail, Giant",[11]; 125 g ai/ha,30
same,"Plant response rating, Foxtail, Giant",[11]; 500 g ai/ha,80
same,"Plant response rating, Pigweed",[12]; 125 g ai/ha,90
same,"Plant response rating, Pigweed",[12]; 500 g ai/ha,90
same,"Plant response rating, Wheat",[13]; 125 g ai/ha,0
same,"Plant response rating, Wheat",[13]; 500 g ai/ha,0
same,"Plant response rating, Corn",[14]; 125 g ai/ha,0
same,"Plant response rating, Corn",[14]; 500 g ai/ha,20
same,"Plant response rating, Blackgrass",[15]; 125 g ai/ha,0
same,"Plant response rating, Blackgrass",[15]; 500 g ai/ha,30
same,"Plant response rating, Galium",[16]; 125 g ai/ha,60
same,"Plant response rating, Galium",[16]; 500 g ai/ha,80
same,"Plant response rating, Rice (0 to 100 scale, 0 is no effect, 100 is complete control)",[17],0
same,"Plant response rating, Sedge, Umbrella (0 to 100 scale, 0 is no effect, 100 is complete control)",[18],0
same,"Plant response rating, Ducksalad (0 to 100 scale, 0 is no effect, 100 is complete control)",[19],0
same,"Plant response rating, Barnyardgrass (0 to 100 scale, 0 is no effect, 100 is complete control)",[20],0
CCc1ccc2oc([C@@H](C)Nc3ncc(C(F)(F)F)c(N)n3)cc2c1 [Compound 17],"Plant response rating, Barnyardgrass",[1]; 125 g ai/ha,0
same,"Plant response rating, Barnyardgrass",[1]; 500 g ai/ha,0
same,"Plant response rating, Kochia",[2]; 125 g ai/ha,0
same,"Plant response rating, Kochia",[2]; 500 g ai/ha,0
same,"Plant response rating, Ragweed",[3]; 125 g ai/ha,0
same,"Plant response rating, Ragweed",[3]; 500 g ai/ha,50
same,"Plant response rating, Ryegrass, Italian",[4]; 125 g ai/ha,0
same,"Plant response rating, Ryegrass, Italian",[4]; 500 g ai/ha,20
same,"Plant response rating, Foxtail, Giant",[5]; 125 g ai/ha,0
same,"Plant response rating, Foxtail, Giant",[5]; 500 g ai/ha,20
same,"Plant response rating, Pigweed",[6]; 125 g ai/ha,0
same,"Plant response rating, Pigweed",[6]; 500 g ai/ha,0
same,"Plant response rating, Barnyardgrass",[7]; 125 g ai/ha,0
same,"Plant response rating, Barnyardgrass",[7]; 500 g ai/ha,0
same,"Plant response rating, Kochia",[8]; 125 g ai/ha,0
same,"Plant response rating, Kochia",[8]; 500 g ai/ha,0
same,"Plant response rating, Ragweed",[9]; 125 g ai/ha,0
same,"Plant response rating, Ragweed",[9]; 500 g ai/ha,20
same,"Plant response rating, Ryegrass, Italian",[10]; 125 g ai/ha,0
same,"Plant response rating, Ryegrass, Italian",[10]; 500 g ai/ha,0
same,"Plant response rating, Foxtail, Giant",[11]; 125 g ai/ha,20
same,"Plant response rating, Foxtail, Giant",[11]; 500 g ai/ha,20
same,"Plant response rating, Pigweed",[12]; 125 g ai/ha,0
same,"Plant response rating, Pigweed",[12]; 500 g ai/ha,20
same,"Plant response rating, Wheat",[13]; 125 g ai/ha,0
same,"Plant response rating, Wheat",[13]; 500 g ai/ha,0
same,"Plant response rating, Corn",[14]; 125 g ai/ha,0
same,"Plant response rating, Corn",[14]; 500 g ai/ha,0
same,"Plant response rating, Blackgrass",[15]; 125 g ai/ha,0
same,"Plant response rating, Blackgrass",[15]; 500 g ai/ha,0
same,"Plant response rating, Galium",[16]; 125 g ai/ha,0
same,"Plant response rating, Galium",[16]; 500 g ai/ha,0
same,"Plant response rating, Rice (0 to 100 scale, 0 is no effect, 100 is complete control)",[17],0
same,"Plant response rating, Sedge, Umbrella (0 to 100 scale, 0 is no effect, 100 is complete control)",[18],0
same,"Plant response rating, Ducksalad (0 to 100 scale, 0 is no effect, 100 is complete control)",[19],0
same,"Plant response rating, Barnyardgrass (0 to 100 scale, 0 is no effect, 100 is complete control)",[20],0
CC[C@@H](Nc1ncc(C(F)(F)F)c(N)n1)c1cc2ccccc2o1 [Compound 21],"Plant response rating, Barnyardgrass",[1]; 1000 g ai/ha,100
same,"Plant response rating, Kochia",[2]; 1000 g ai/ha,80
same,"Plant response rating, Ragweed",[3]; 1000 g ai/ha,100
same,"Plant response rating, Ryegrass, Italian",[4]; 1000 g ai/ha,80
same,"Plant response rating, Foxtail, Giant",[5]; 1000 g ai/ha,100
same,"Plant response rating, Pigweed",[6]; 1000 g ai/ha,100
same,"Plant response rating, Barnyardgrass","[7]; 1000 g ai/ha, 0 no effect, 100 complete control",80
same,"Plant response rating, Kochia",[8]; 1000 g ai/ha,90
same,"Plant response rating, Ragweed",[9]; 1000 g ai/ha,80
same,"Plant response rating, Ryegrass, Italian",[10]; 1000 g ai/ha,50
same,"Plant response rating, Foxtail, Giant",[11]; 1000 g ai/ha,70
same,"Plant response rating, Pigweed",[12]; 1000 g ai/ha,100
same,"Plant response rating, Wheat",[13]; 1000 g ai/ha,0
same,"Plant response rating, Corn",[14]; 1000 g ai/ha,100
same,"Plant response rating, Blackgrass",[15]; 1000 g ai/ha,80
same,"Plant response rating, Galium",[16]; 1000 g ai/ha,80
same,"Plant response rating, Rice (0 to 100 scale, 0 is no effect, 100 is complete control)",[17],0
same,"Plant response rating, Sedge, Umbrella (0 to 100 scale, 0 is no effect, 100 is complete control)",[18],65
same,"Plant response rating, Ducksalad (0 to 100 scale, 0 is no effect, 100 is complete control)",[19],60
same,"Plant response rating, Barnyardgrass (0 to 100 scale, 0 is no effect, 100 is complete control)",[20],0
"C[C@@H](Nc1ncc(C(F)(F)F)c(N)n1)c1cc2ccccc2o1 [Compound 22, N2-[(1R)-1-(2-benzofuranyl)ethyl]-5-(trifluoromethyl)-2,4-pyrimidinediamine]","Plant response rating, Barnyardgrass",[1]; 1000 g ai/ha,100
same,"Plant response rating, Kochia",[2]; 1000 g ai/ha,100
same,"Plant response rating, Ragweed",[3]; 1000 g ai/ha,100
same,"Plant response rating, Ryegrass, Italian",[4]; 1000 g ai/ha,100
same,"Plant response rating, Foxtail, Giant",[5]; 1000 g ai/ha,100
same,"Plant response rating, Pigweed",[6]; 1000 g ai/ha,100
same,pest or weed control at 1000 g/ha,"[7]; Echinochloa crus-galli, post-emergence, 240 h, 1000 g ai/ha, 0 no effect, 100 complete control, read-out: Plant response rating, Barnyardgrass",100%
same,pest or weed control at 1000 g/ha,"[8]; Bassia scoparia, post-emergence, 240 h, 1000 g ai/ha, read-out: Plant response rating, Kochia",80%
same,pest or weed control at 1000 g/ha,"[9]; Ambrosia artemisiifolia, post-emergence, 240 h, 1000 g ai/ha, read-out: Plant response rating, Ragweed",80%
same,pest or weed control at 1000 g/ha,"[10]; Lolium multiflorum, post-emergence, 240 h, 1000 g ai/ha, read-out: Plant response rating, Ryegrass, Italian",100%
same,pest or weed control at 1000 g/ha,"[11]; Setaria faberi, post-emergence, 240 h, 1000 g ai/ha, read-out: Plant response rating, Foxtail, Giant",90%
same,pest or weed control at 1000 g/ha,"[12]; Amaranthus retroflexus, post-emergence, 240 h, 1000 g ai/ha, read-out: Plant response rating, Pigweed",100%
same,plant injury at 1000 g/ha,"[13]; Triticum aestivum, post-emergence, 240 h, 1000 g ai/ha, read-out: Plant response rating, Wheat",40%
same,"Corn plant response rating (crop injury, 0 = no effect, 100 = complete kill) at 1000 g/ha","[14]; Zea mays, post-emergence, 240 h, 1000 g ai/ha",100%
same,pest or weed control at 1000 g/ha,"[15]; Alopecurus myosuroides, post-emergence, 240 h, 1000 g ai/ha, read-out: Plant response rating, Blackgrass",90%
same,pest or weed control at 1000 g/ha,"[16]; Galium, post-emergence, 240 h, 1000 g ai/ha, read-out: Plant response rating, Galium",90%
same,plant injury at 250 g/ha,"[17]; Oryza sativa, 360 h, read-out: Plant response rating, Rice (0 to 100 scale, 0 is no effect, 100 is complete control)",0%
same,pest or weed control at 250 g/ha,"[18]; Cyperus difformis, 360 h, read-out: Plant response rating, Sedge, Umbrella (0 to 100 scale, 0 is no effect, 100 is complete control)",95%
same,pest or weed control at 250 g/ha,"[19]; Heteranthera limosa, 360 h, read-out: Plant response rating, Ducksalad (0 to 100 scale, 0 is no effect, 100 is complete control)",100%
same,pest or weed control at 250 g/ha,"[20]; Echinochloa crus-galli, 360 h, read-out: Plant response rating, Barnyardgrass (0 to 100 scale, 0 is no effect, 100 is complete control)",40%
